Experimental data as given in ChEMBL document CHEMBL5724803, “Viability screening in matched tumor and normal assay results for EUbOPEN Chemogenomics Library” (2024).
Square brackets hold non-standard residues; d marks the D form. Peptide text beside a SMILES is read from it. Arg(Me) = CNC(=N)NCCC[C@H](N)C(=O)O; d4Pal = N[C@H](Cc1ccncc1)C(=O)O; azaGly = NNC(=O)O

tested on: Colon organoid; format: functional, Homo sapiens

Row | Compound | Cell Viability Ratio
1 | CNC(=N)NCCC[C@H](NC(=O)[C@H](CC(C)C)NC(=O)NNC(=O)[C@H](Cc1ccccc1)NC(=O)[C@H](CO)NC(=O)[C@H](CC(N)=O)NC(=O)[C@@H](Cc1ccncc1)NC(=O)[C@H](N)Cc1ccc(O)cc1)C(=O)N[C@@H](Cc1ccccc1)C(N)=O [KISS1-305] (H-[dY][d4Pal]NSF[azaGly]L[Arg(Me)]F-NH2) | 1.123
2 | Cc1cn(-c2cc(NC(=O)c3ccc4c(c3)CN(c3cncnc3)C[C@@H]4C)cc(C(F)(F)F)c2)cn1 | 1.531
3 | CCC(=N\O)/C(C)=C/c1ccc(F)c(C)c1 [A-226] | 1.032
4 | CC(=O)Nc1c(F)cc(C(=O)N[C@H]2CC[C@H](O)CC2)cc1O[C@@H](C)c1ccccc1 [GSK046] | 0.8182
5 | COc1cc(Nc2nc(C)cc(-c3cnn4nc(OC)ccc34)n2)cc(C(F)(F)F)c1 | 0.9824
6 | Cl.Cl.Cl.c1ccc(N2CCN(Cc3nc4ccccc4[nH]3)CC2)nc1 | 0.9546
7 | O=C(O)[C@H]1[C@H](Cn2nnc3ccccc3c2=O)CC[C@@H]1C(=O)c1ccc(OCCC2CCOCC2)cc1 [BAY-7598] | 1.026
8 | Cn1cncc1[C@@](O)(COc1ccc(C#N)cc1-c1ccc(OC(F)(F)F)cc1)c1ccc(C#N)cc1 [A-108] | 0.984
9 | C[C@H](NC(=O)Nc1cc2[nH]ncc2c(CO)n1)c1ccccn1 [ERKi-NC] | 1.034
10 | Cc1c(C(=O)Nc2ccc(Oc3ccnc4[nH]cc(-c5ccccc5)c34)c(F)c2)c(=O)n(-c2ccc(F)cc2)n1C | 0.9213
11 | O=C(NCc1ncc(C(F)(F)F)cc1Cl)c1ccc2c(c1)C1(CCS(=O)(=O)CC1)[C@@H](C1CC1)N2S(=O)(=O)c1ccc(F)cc1 [BAY-786] | 1.0741
12 | CN(C)C(=O)Cn1cc(-c2nc(C3(c4ccc(-c5cnc(N)nc5)cc4)CC3)no2)cn1 [BI 0153] | 0.9292
13 | O=C(O)[C@@H]1[C@@H](Cn2nnc3ccccc3c2=O)CC[C@H]1C(=O)c1ccc(OCCC2CCOCC2)cc1 [BAY-694] | 1.051
14 | Cc1cccc(-c2cnc3occ(-c4ccc(C(=O)O)c(C5CCCC5)c4)c3c2)c1 | 0.9583
15 | CCCCN(CCCC)C(=O)CN1C[C@@H](c2cc(OC)c3c(c2)OCO3)[C@H](C(=O)O)[C@H]1CC(C)(C)CCC [A-545] | 1.095
16 | NS(=O)(=O)c1cc(NC(=O)C2(c3ccccc3Cl)CC2)ccc1Oc1cccc(Cl)c1 [BAY-207] | 0.9336
17 | CNC(=O)Nc1ccc2c(c1)[C@@]1(CC2)OC(=O)N(CC(=O)N(Cc2ccc(F)cc2)[C@@H](C)C(F)(F)F)C1=O [A-486] | 0.9599
18 | C[C@@H]1CN(c2cc(-c3nn(C)c4ccc(OC5(C)CC5)cc34)ncn2)C[C@H](C)O1 [MLi-2-NC] | 1.036
19 | CN1CCN(Cc2cc(NC(=O)c3ccc4c(c3)CN(c3ccccc3)CC4)cc(C(F)(F)F)c2)CC1 | 1.189
20 | O=C(NS(=O)(=O)c1ccc(NCC2CCOCC2)c([N+](=O)[O-])c1)c1ccc(N2CCN(Cc3ccc(C(F)(F)F)cc3-c3ccc(Cl)cc3)CC2)cc1Oc1cnc2[nH]ccc2c1 [A-1210227] | 0.9477
21 | O=C(O)c1ccc(-c2c[nH]c3ncc(-c4ccccc4)cc23)cc1C1CCCC1 [GSK-650394] | 1.062
22 | COc1cc(Nc2ccnc3ccc(Br)cc23)cc(OC)c1OC | 1.477
23 | CN(C)C(=O)/C(C#N)=C/c1ccc(-c2nc3cnc4c(ccn4C)c3n2C2CCCCC2)o1 | 0.859
24 | Cc1cnc(-c2cc(Cl)ccc2F)cc1-n1c(=O)n(CC(N)=O)c2cnccc21 [TP-008] | 1.1125

Row | Compound | Cell Viability Ratio
25 | O=C(NCCCN1CCOC1=O)c1cnc(NCc2cc(Br)ccc2Br)nc1NC1CCCC1 | 0.9691
26 | CCCCN(CCCC)C(=O)CN1C[C@H](c2cc(OC)c3c(c2)OCO3)[C@@H](C(=O)O)[C@@H]1CC(C)(C)CCC.Cc1ccc(S(=O)(=O)O)cc1 | 0.9627
27 | CN1C(=O)[C@@H](N2CCc3c(nn(Cc4ccccc4)c3Br)C2=O)COc2ccccc21 [TP-030-2] | 1.065
28 | CCNC(=O)c1cc2c(N3CCOC[C@@H]3C)ccnc2n1C | 1.086
29 | O=C(NNS(=O)(=O)c1ccccc1)c1cc(-c2ccnnc2)ccc1F [WM-2474] | 1.138
30 | Cn1nc(C(=O)NCc2ccc(C(=O)O)cc2)cc1-c1ccc2[nH]ccc2c1 [BI 4395] | 1.056
31 | CCC(=O)N[C@@H]1CC[C@H](C(=O)N(C)c2ccc(-c3nc4ccccc4o3)cc2)C1 [BI 99990] | 1.309
32 | Clc1cccc(-c2nnnn2Cc2cccnc2)c1Cl | 0.9298
33 | CS(=O)(=O)c1cc(C2(NC(=O)c3cncc4c3cnn4-c3ccc(F)cc3)CC2)ccn1 [BI 639667] | 0.9024
34 | COc1cc(N[C@@H]2CCCC[C@]2(O)C(F)(F)F)ccc1F [BAY-9897] | 0.9982
35 | CC1=C(C#N)C(c2ccc3[nH]nc(C)c3c2)C(C#N)=C(C)N1 [BAY-474] | 0.9495
36 | CCS(=O)(=O)c1cc2cc(C[C@](O)(CC(C)(C)c3ccc(F)cc3C(N)=O)C(F)(F)F)[nH]c2cn1 [BI 653048] | 0.9178
37 | COc1ccc2c(c1)O[C@H](c1ccc(OC)c(OC)c1)C[C@@H]2NC(=O)C1(c2ccc3c(c2)OC(F)(F)O3)CC1 [A-1596584] | 0.985
38 | CCOC(=O)c1cc2cc(-c3cc(C(=O)NCc4ccc(C(=O)O)cc4)nn3C)ccc2[nH]1 [BI 4394] | 0.9253
39 | CN1CCN(Cc2ccc(Nc3ncc(Cl)c(Nc4ccccc4S(=O)(=O)N(C)C)n3)cc2)CC1 [DUBERMATINIB] | 0.1542
40 | Cc1nc(N2CC[C@H](O)C2)ncc1-c1cc(C(F)(F)F)cc2[nH]ncc12 | 1.041
41 | CCOc1cn(-c2ccc(F)cc2C)nc1C(=O)Nc1ccc(Oc2ccnc3cc(OC)c(OC)cc23)c(F)c1 | 0.8903
42 | Cc1c(N2CCNCC2)nc2ccc(Br)cc2c1C(=O)NC[C@H](CCC(=O)O)c1ccccc1Cl [BAY-403] | 0.887
43 | CN1CCN(C(=O)C(C)(C)c2ccc(C(=O)Nc3cn4cc(-c5cc(C(C)(C)C)cc(C(C)(C)C)c5)ccc4n3)cc2)CC1 [T3-CLK-N] | 0.9471
44 | FC(F)(F)c1ccc2c(c1)nc(-c1cccnc1)n2C1CC1 [MSD-CYP11B2-Negative-control] | 1.22
45 | C[C@H](c1ccnc(Nc2nc3ccc(-c4cc(N(C)C)ncn4)cc3[nH]2)c1)N1CCN(C(=O)CC(F)(F)F)CC1 [BAY-985] | 0.822
46 | CC(=O)c1c(NS(C)(=O)=O)c2cc(-c3ccc(Cl)cc3)c(-c3ccc(Cl)cc3Cl)nc2n(C)c1=O [MRL-CB1-NC] | 1.02
47 | O=C(N[C@H]1CCCCC/C=C\C2C[C@@]2(C(=O)O)NC(=O)[C@@H]2C[C@@H](Oc3ccncc3)CN2C1=O)OC1CCCC1 (some centres not stated) [BI 1675] | 1.111
48 | O=C(NCc1ccccc1)c1ccc(S(=O)(=O)NCc2ccccc2)cc1 | 1.216

Row | Compound | Cell Viability Ratio
49 | O=C(Nc1ccc(-n2nc(-c3cccnc3)cc2C(F)(F)F)cn1)c1ccc(-c2ccccc2)c(F)c1 [BI 2049] | 1.116
50 | Cn1cnc2c(F)c(Nc3ccc(Br)cc3Cl)c(C(=O)NOCCO)cc21 [SELUMETINIB] | 1.4315
51 | Cc1cc(NC(=O)c2cccc(S(F)(F)(F)(F)F)c2)cc(-n2ccn3nc(-c4cccnc4)cc23)c1 [BAY-309] | 1.076
52 | CC1=C(C#N)C(c2ccc3c(c2)c(NC(=O)c2ccccc2C)nn3C)C(C#N)=C(C)N1 [BAY-974] | 1.012
53 | CN1CCN(c2cnc3c(C4CCN(C(=O)c5ccc(OC(F)(F)F)cc5N)CC4)ncnc3c2)CC1 [BAY-885] | 0.9479
54 | CC(C)(C)OC(=O)N1CCCC1CNC1CCC(c2cc(F)ccc2F)(S(=O)(=O)c2ccc(Cl)cc2)CC1 (configuration not stated) [GSI-NC] | 0.9423
55 | Cc1c(NC(=O)c2cc(C(N)=O)nc3cc(F)ccc23)c(C(F)(F)F)nn1Cc1ccc(C#N)cc1 [BAY-876] | 1.117
56 | CC(C)C(=O)Nc1n[nH]c2cc(-c3cccc(NS(=O)(=O)C4CC4)c3)ccc12 | 1.005
57 | CCC(=O)N[C@H]1CC[C@@H](C(=O)N(C)c2ccc(-c3nc4ccccc4o3)cc2)C1 [BI 99179] | 0.6872
58 | CN(C)c1ncnc(-c2ccc3nc(Nc4cc(CN5CCN(C(=O)CC(F)(F)F)CC5)ccn4)[nH]c3c2)c1Cl [BAY-440] | 0.922
59 | CCCOc1ccc([C@@H]2[C@@H](C(=O)O)[C@H](c3ccc4c(c3)OCO4)CN2CC(=O)Nc2c(CC)cccc2CC)cc1 [A-1806262] | 1.041
60 | Cc1c(Oc2ccc(F)cc2)c(OC(C)C)nn1-c1ccc(C2CC2)cn1 [IPP/CNRS-A019] | 1.225
61 | Cc1cnc(-c2cc(Cl)ccc2F)cc1-n1c(=O)n(CC(N)=O)c2ccccc21 [Al11] | 1.079
62 | Nc1cnc(N2CCc3cc(S(=O)(=O)Nc4c(F)cc(Cl)cc4F)cc(N4CCCC4=O)c32)nc1 [TP-020n] | 1.046
63 | Nc1nc(NCc2ccccc2)nc(-c2cccc(CO)c2)n1 [ZINC32547799] | 1.205
64 | CC(=O)N1CCC(c2ccc(C(=O)NC(=N)N)cc2C(F)(F)F)CC1 [BI 9627] | 0.903
65 | N#CC1(c2ccccn2)CCN(Cc2cc(C(=O)N3CCCC3)c(=O)n3ccccc23)CC1 [MSD-M1PAM-NC] | 1.068
66 | CCOCCn1cc(C(=O)Nc2ccc(-n3nc(-c4cccnc4)cc3C(F)(F)F)cn2)ccc1=O [BI 1935] | 0.9955
67 | Cn1cc(Cl)c2c(Oc3c(F)cc(Nc4cc(Cl)nc(N)n4)cc3F)ccnc21 [BAY-4900] | 1.21
68 | Cc1ccc(-c2cnc([C@@]3(O)CC[C@H](C(=O)O)C(C)(C)C3)s2)cc1Nc1cccc(C(F)(F)F)n1 [MRL-SYKi-NC] | 1.002
69 | O=C(N1CCS(=O)(=O)CC1)N1C[C@H](c2ccc(OC(F)(F)F)cc2)C[C@H](c2nc(C3CC3)no2)C1 [BAY-386] | 0.9974
70 | O=C(NCc1ncc(C(F)(F)F)cc1Cl)c1ccc2c(c1)C1(CCS(=O)(=O)CC1)[C@H](C1CC1)N2S(=O)(=O)c1ccc(F)cc1 [BAY-784] | 0.9106
71 | Cc1ccc2[nH]c(CNCCCc3ccncc3)cc(=O)c2c1 [UCSF924NC] | 1.116
72 | Cc1cc(-n2nc(Cc3cc(F)cc(C(F)(F)F)c3)nc2C)ccc1C(N)=O [TP-024] | 0.8967
